Test results reported in ChEMBL document CHEMBL5303573, “Mapping human microbiome drug metabolism by gut bacteria and their genes” (Nature, 2019).

Assays:
[1] = The drug is tested on Bacteroides uniformis strain: ATCC8492 for biotransformation. The drug concentrations were measured before and after a 12-h incubation by liquid-chromatography-coupled mass spectrometry (LC–MS); conditions: 2 µM
[2] = The drug is tested on Clostridium symbiosum strain: ATCC14940 for biotransformation. The drug concentrations were measured before and after a 12-h incubation by liquid-chromatography-coupled mass spectrometry (LC–MS); conditions: 2 µM
[3] = The drug is tested on Parabacteroides merdae strain: ATCC43184 for biotransformation. The drug concentrations were measured before and after a 12-h incubation by liquid-chromatography-coupled mass spectrometry (LC–MS); conditions: 2 µM
[4] = The drug is tested on Bacteroides sp. WH2 strain: WH2 for biotransformation. The drug concentrations were measured before and after a 12-h incubation by liquid-chromatography-coupled mass spectrometry (LC–MS); conditions: bacteroides sp. wh2, 12 h, 2 µM
[5] = The drug is tested on Clostridium sporogenes strain: ATCC15579 for biotransformation. The drug concentrations were measured before and after a 12-h incubation by liquid-chromatography-coupled mass spectrometry (LC–MS); conditions: 2 µM
[6] = bacteroides stercoris, 12 h, 2 µM
Description: The drug is tested on Bacteroides stercoris strain: ATCC43183 for biotransformation. The drug concentrations were measured before and after a 12-h incubation by liquid-chromatography-coupled mass spectrometry (LC–MS)

[7] = The drug is tested on Clostridium ramosum strain: DSM1402 for biotransformation. The drug concentrations were measured before and after a 12-h incubation by liquid-chromatography-coupled mass spectrometry (LC–MS); conditions: thomasclavelia ramosa, 2 µM
[8] = The drug is tested on Blautia luti strain: DSM14534 for biotransformation. The drug concentrations were measured before and after a 12-h incubation by liquid-chromatography-coupled mass spectrometry (LC–MS); type: ADME; design: dose 2 uM, timepoint 0 vs 12 hours; conditions: 2 µM
[9] = bacteroides eggerthii, 12 h, 2 µM
Description: The drug is tested on Bacteroides eggerthii strain: DSM20697 for biotransformation. The drug concentrations were measured before and after a 12-h incubation by liquid-chromatography-coupled mass spectrometry (LC–MS)

[10] = The drug is tested on Edwardsiella tarda strain: ATCC23685 for biotransformation. The drug concentrations were measured before and after a 12-h incubation by liquid-chromatography-coupled mass spectrometry (LC–MS); conditions: 2 µM
[11] = The drug is tested on Bacteroides caccae strain: ATCC43185 for biotransformation. The drug concentrations were measured before and after a 12-h incubation by liquid-chromatography-coupled mass spectrometry (LC–MS); conditions: 2 µM
[12] = bacteroides fragilis, 12 h, 2 µM
Description: The drug is tested on Bacteroides fragilis strain: NCTC 9343 for biotransformation. The drug concentrations were measured before and after a 12-h incubation by liquid-chromatography-coupled mass spectrometry (LC–MS)

[13] = akkermansia muciniphila, 12 h, 2 µM
Description: The drug is tested on Akkermansia muciniphila strain: ATCC BAA-835 for biotransformation. The drug concentrations were measured before and after a 12-h incubation by liquid-chromatography-coupled mass spectrometry (LC–MS)

[14] = The drug is tested on Bacteroides vulgatus strain: ATCC8482 for biotransformation. The drug concentrations were measured before and after a 12-h incubation by liquid-chromatography-coupled mass spectrometry (LC–MS); conditions: phocaeicola vulgatus, 2 µM
[15] = bacteroides fragilis, 12 h, 2 µM; remark: listed apart in the source
Description: The drug is tested on Bacteroides fragilis strain: DS-208 for biotransformation. The drug concentrations were measured before and after a 12-h incubation by liquid-chromatography-coupled mass spectrometry (LC–MS)

[16] = The drug is tested on Providencia rettgeri strain: DSM1131 for biotransformation. The drug concentrations were measured before and after a 12-h incubation by liquid-chromatography-coupled mass spectrometry (LC–MS); type: ADME; design: dose 2 uM, timepoint 0 vs 12 hours; conditions: 2 µM
[17] = The drug is tested on Bifidobacterium breve strain: DSM20213 for biotransformation. The drug concentrations were measured before and after a 12-h incubation by liquid-chromatography-coupled mass spectrometry (LC–MS); conditions: 2 µM
[18] = parabacteroides johnsonii, 12 h, 2 µM
Description: The drug is tested on Parabacteroides johnsonii strain: DSM18315 for biotransformation. The drug concentrations were measured before and after a 12-h incubation by liquid-chromatography-coupled mass spectrometry (LC–MS)

[19] = limosilactobacillus reuteri cf48-3a, 12 h, 2 µM
Description: The drug is tested on Lactobacillus reuteri CF48-3A strain: BEI HM-102 for biotransformation. The drug concentrations were measured before and after a 12-h incubation by liquid-chromatography-coupled mass spectrometry (LC–MS)

SMILES | Bacterial Biotransformation [1] | Bacterial Biotransformation [2] | Bacterial Biotransformation [3] | Bacterial Biotransformation [4] | Bacterial Biotransformation [5] | Bacterial Biotransformation [6] | Bacterial Biotransformation [7] | Bacterial Biotransformation [8] | Bacterial Biotransformation [9] | Bacterial Biotransformation [10] | Bacterial Biotransformation [11] | Bacterial Biotransformation [12] | Bacterial Biotransformation [13] | Bacterial Biotransformation [14] | Bacterial Biotransformation [15] | Bacterial Biotransformation [16] | Bacterial Biotransformation [17] | Bacterial Biotransformation [18] | Bacterial Biotransformation [19]
CN(C)CC(c1ccc(O)cc1)C1(O)CCCCC1.O=C(O)CCC(=O)O (stereo not drawn) [DESVENLAFAXINE SUCCINATE] | Compound NOT metabolized | Compound NOT metabolized | Compound NOT metabolized | Compound NOT metabolized | Compound NOT metabolized | Compound NOT metabolized | Compound NOT metabolized | Compound NOT metabolized | Compound NOT metabolized | Compound NOT metabolized | Compound NOT metabolized | Compound NOT metabolized | Compound NOT metabolized | Compound NOT metabolized | Compound NOT metabolized | Compound NOT metabolized | Compound NOT metabolized | – | –
CCN(CC)CCOC(=O)C1(C2CCCCC2)CCCCC1 [DICYCLOMINE] | – | – | – | Compound NOT metabolized | Compound NOT metabolized | – | Compound NOT metabolized | Compound NOT metabolized | Compound NOT metabolized | – | Compound NOT metabolized | Compound NOT metabolized | – | Compound metabolized | Compound NOT metabolized | Compound NOT metabolized | Compound NOT metabolized | – | –
COc1cc2nc(N3CCN(C(=O)C4COc5ccccc5O4)CC3)nc(N)c2cc1OC.CS(=O)(=O)O (stereo not drawn) [DOXAZOSIN MESYLATE] | Compound metabolized | Compound NOT metabolized | Compound NOT metabolized | Compound NOT metabolized | – | Compound NOT metabolized | Compound NOT metabolized | Compound NOT metabolized | Compound NOT metabolized | Compound NOT metabolized | Compound NOT metabolized | Compound NOT metabolized | Compound NOT metabolized | – | Compound NOT metabolized | Compound NOT metabolized | Compound NOT metabolized | Compound NOT metabolized | –
CN(C)CCOC(C)(c1ccccc1)c1ccccn1.O=C(O)CCC(=O)O (stereo not drawn) [DOXYLAMINE SUCCINATE] | Compound NOT metabolized | Compound NOT metabolized | Compound NOT metabolized | Compound NOT metabolized | Compound NOT metabolized | Compound NOT metabolized | Compound NOT metabolized | Compound NOT metabolized | Compound NOT metabolized | Compound NOT metabolized | Compound NOT metabolized | Compound NOT metabolized | Compound NOT metabolized | Compound NOT metabolized | Compound NOT metabolized | – | Compound NOT metabolized | – | Compound NOT metabolized
O=C1NCC2(CCN(CCc3ccccc3)CC2)O1 [FENSPIRIDE] | Compound metabolized | Compound NOT metabolized | – | Compound NOT metabolized | Compound NOT metabolized | Compound metabolized | Compound NOT metabolized | Compound NOT metabolized | – | Compound NOT metabolized | Compound NOT metabolized | Compound metabolized | Compound NOT metabolized | Compound NOT metabolized | Compound metabolized | Compound NOT metabolized | Compound NOT metabolized | Compound metabolized | Compound NOT metabolized
